What was measured:
[1] = target: CAK complex-CDK7/CyclinH/MAT1 (Homo sapiens, UniProt P50613); experiment: In vitro kinase assay, CAK complex with GST-MED1 protein, immunoblot; assay type: biochemical; settings: 60 min at 30° C.
Protocol: The kinase assay was performed by preparing the master mixture of 3 ul (5×) kinase assay buffer, 0.5 ul of 500 uM ATP (BPS Bioscience, 79603), 1.25 ul (1 ug/ul) Human Recombinant GST-MED1 protein (Lifespan Biosciences, LS-G59680-25), and 7.75 ul of kinase assay grade water per reaction for the desired number of reactions. […] Additionally, kinase assay reaction mixtures containing no ATP and CDK7 were used as negative controls. Next, CAK complex-CDK7/CyclinH/MAT1 enzyme (BPS Bioscience) was thawed and diluted to (10 ng/111) in 1× kinase assay buffer. The reactions were initiated by adding 10 ul of diluted CAK complex to the designated wells and incubated at 30° C. for 60 min. After the incubation the reaction was stopped, and the mixture were analyzed through western blotting.

[2] = test system: enzalutamide resistant PCa cell lines; experiment: Enzalutamide resistant PCa cells: immunoblot and colony formation; assay type: cell-based, human
Protocol: Prostate parental cell lines used in this study were obtained from ATCC, LNCaP-AR cells were a gift from Dr. Charles Sawyers (Memorial Sloan-Kettering Cancer Center, New York, NY), and LNCaP AR-KO cells were a gift from Dr. Dean Tang (Roswell Park Cancer Institute, Buffalo, NY). LNCaP, LNCaP-AR, 22RV1, LAPC4, DU145, PC3, and LNCaP AR-KO prostate cancer cell lines were grown in RPMI 1640 (Gibco, 11875093), and VCaP prostate cancer cell line was grown in DMEM with Glutamax (Gibco, 21013024). The medium was supplemented with 10% Fetal Bovine Serum (FBS) (HYC, SH30910.03) and 1% Penicillin Streptomycin Solution (Invitrogen, 15140122), hereto referred to as “complete media.” The immortalized benign prostate cell line RWPE-1 was grown in keratinocyte media with supplements (Thermo Fisher Scientific, 17005042). LNCaP-AR and VCaP enzalutamide-resistant cell lines were derived from enzalutamide-resistant PCa tumor xenograft as described previously. LNCaP and LAPC4 enzalutamide-resistant cell lines were generated by culturing the cells in presence of 20 μM enzalutamide for 3-4 months in vitro. Polyclonal pools of enzalutamide-resistant cells were cultured and maintained in media containing enzalutamide throughout. All experiments for enzalutamide resistant pools were done in presence of enzalutamide throughout the remainder of all experiments with these cells. The cell lines were tested negative for mycoplasma contamination and maintained in a humidified incubator at 37° C. and 5% CO2.
For the long-term colony formation assay, 10,000-50,000 cells/well in six-well plates (n=3) were seeded and treated with the required drugs/compounds or vehicle for 14 days. Media was refreshed every 4-5 days. Colonies were fixed and stained using 0.5% (w/v) crystal violet (Sigma, C0775) in 20% (v/v) methanol for 30 min, washed with distilled deionized water, and air-dried. To quantify staining, we washed the stained wells with 500 μL 10% acetic acid and using colorimetric assays determined the absorbance at 590 nm using a spectrophotometer (Synergy HT, BioTek Instruments, Vermont-USA).
Cell lysates were prepared with RIPA buffer (Boston Bioproducts, BP-115DG)-10 mM Tris-HCl pH 7.5, 1 mM EDTA, 400 mM NaCl, 0.5% NP-40 and 1 mM DTT, supplemented with protease inhibitor cocktail (Pierce, A32965) and phosphatase inhibitor (Thermo, 1861280). For immunoblotting 200 μg total protein extract was boiled in sample buffer and 15-25 μg aliquots were separated by SDS-PAGE and transferred onto Polyvinylidene Difluoride membrane (GE Healthcare, IPVH00010). The membrane was incubated for one hour in blocking buffer [Tris-buffered saline, 0.1% Tween (TBS-T), 5% nonfat dry milk followed by overnight incubation on a rocker at 4° C. with the primary antibody. […]

CAK complex-CDK7/CyclinH/MAT1, sequence (P50613 whole entry): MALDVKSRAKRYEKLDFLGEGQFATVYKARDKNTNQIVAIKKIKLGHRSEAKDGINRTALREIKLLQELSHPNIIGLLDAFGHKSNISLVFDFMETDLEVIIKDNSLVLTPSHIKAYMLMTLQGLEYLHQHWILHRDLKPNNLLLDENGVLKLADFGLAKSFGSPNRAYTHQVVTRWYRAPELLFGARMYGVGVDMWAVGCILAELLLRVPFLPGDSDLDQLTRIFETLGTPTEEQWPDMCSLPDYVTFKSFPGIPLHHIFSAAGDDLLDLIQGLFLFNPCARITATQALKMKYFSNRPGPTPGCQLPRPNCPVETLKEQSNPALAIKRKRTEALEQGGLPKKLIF
CAK complex-CDK7/CyclinH/MAT1, sequence (P51946 whole entry partner): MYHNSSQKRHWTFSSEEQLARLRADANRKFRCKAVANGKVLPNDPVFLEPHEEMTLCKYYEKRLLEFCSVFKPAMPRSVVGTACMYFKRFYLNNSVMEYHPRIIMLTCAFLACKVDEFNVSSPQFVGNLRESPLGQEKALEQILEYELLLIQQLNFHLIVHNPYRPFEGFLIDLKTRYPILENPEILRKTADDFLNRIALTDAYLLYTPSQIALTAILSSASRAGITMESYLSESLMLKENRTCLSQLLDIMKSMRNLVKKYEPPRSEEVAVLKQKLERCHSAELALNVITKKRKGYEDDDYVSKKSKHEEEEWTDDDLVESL
CAK complex-CDK7/CyclinH/MAT1, sequence (P51948 whole entry partner): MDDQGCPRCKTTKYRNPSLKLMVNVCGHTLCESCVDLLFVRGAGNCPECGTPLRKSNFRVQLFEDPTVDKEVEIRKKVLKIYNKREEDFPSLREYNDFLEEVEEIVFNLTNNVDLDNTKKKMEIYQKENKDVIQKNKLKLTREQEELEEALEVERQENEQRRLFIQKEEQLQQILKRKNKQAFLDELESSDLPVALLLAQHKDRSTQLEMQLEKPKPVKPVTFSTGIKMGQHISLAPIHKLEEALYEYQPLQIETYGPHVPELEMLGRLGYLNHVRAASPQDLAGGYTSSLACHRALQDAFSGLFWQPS

In the case of `CN(C)C/C=C/C(=O)Nc1ccc(C(=O)Nc2cccc(Nc3ncc(Cl)c(-c4c[nH]c5ccccc45)n3)c2)cc1` [THZ1], the “Threonine phosphorylation of GST-MED1 (aa 1391-1490) at T1457” value [1] is reported as “completely inhibited”, the PSA ([2]; 200 nM THZ1, 24 h) is reported as “reduced PSA” and the “apoptosis (cleaved PARP, cleaved caspase-3)” value ([2]; 200 nM THZ1, 24 h) is reported as “increased apoptosis”. For the same molecule, the p-MED1 ([2]; 200 nM THZ1, 24 h) was “loss of p-MED1” and the “growth (colony formation)” value ([2]; enzalutamide plus 50 nM THZ1) was “growth inhibition”.

— US12678438B2, “Treatment of cancer with CDK inhibitors” (THE TRUSTEES OF THE UNIVERSITY OF PENNSYLVANIA, priority 2019, dated 2026)
